Assay results taken from ChEMBL document CHEMBL3593167, “Synthesis and anti-Trypanosoma cruzi activity of new 3-phenylthio-nor-β-lapachone derivatives” (Bioorg Med Chem, 2015).

Columns and labels:
[1] = Selectivity index, ratio of LC50 for mouse HMC to IC50 for Trypanosoma cruzi Y bloodstream trypomastigotes
[2] = Toxicity against mouse HMC incubated for 24 hrs; conditions: HMC cells, read-out: LC50
Trypanosoma cruzi = assay: Trypanocidal activity against Trypanosoma cruzi Y bloodstream trypomastigotes in presence of 10% mouse blood assessed as induction of parasite lysis incubated for 24 hrs by Neubauer chamber based cell counting method; assay type: functional, organism-based

| SMILES | Ratio LC50/IC50 [1] | CC50 at 24 h [2] [µM] | IC50 (Trypanosoma cruzi) [µM] |
| --- | --- | --- | --- |
| Cc1cccc(SC2C3=C(OC2(C)C)c2ccccc2C(=O)C3=O)c1 (stereo not given) | 0.31 | 25.8 | 83.6 |
| CC1(C)OC2=C(C(=O)C(=O)c3ccccc32)C1Sc1ccccc1 (stereo not given) | 0.54 | 17.5 | 32.3 |
| COc1ccc(SC2C3=C(OC2(C)C)c2ccccc2C(=O)C3=O)cc1 (stereo not given) |  |  | 158 |
| CC1(C)OC2=C(C(=O)C(=O)c3ccccc32)C1Sc1ccc(Cl)cc1 (stereo not given) | 4.23 | 38.9 | 9.2 |
| CC1(C)OC2=C(C(=O)C(=O)c3ccccc32)C1Sc1c(F)c(F)c(F)c(F)c1F (stereo not given) |  |  | 183 |
| Cc1ccc(SC2C3=C(OC2(C)C)c2ccccc2C(=O)C3=O)cc1 (stereo not given) | 0.34 | 20.5 | 59.5 |
| CC1(C)OC2=C(C(=O)C(=O)c3ccccc32)C1Sc1ccc(F)cc1 (stereo not given) |  |  | 165 |
